Data on two compounds can be found in publication PMC6277434, “Discovery of a potent HMG-CoA reductase degrader that eliminates statin-induced reductase accumulation and lowers cholesterol” (Nature Communications, 2018).

In experiment [1] the target is T1, HMGCR (Cricetulus griseus, UniProt P00347).
T1 construct: endogenous in cells; host or cells: CHO-7, CHG, SRD-13A, SRD-15
T1 sequence (P00347 1-887): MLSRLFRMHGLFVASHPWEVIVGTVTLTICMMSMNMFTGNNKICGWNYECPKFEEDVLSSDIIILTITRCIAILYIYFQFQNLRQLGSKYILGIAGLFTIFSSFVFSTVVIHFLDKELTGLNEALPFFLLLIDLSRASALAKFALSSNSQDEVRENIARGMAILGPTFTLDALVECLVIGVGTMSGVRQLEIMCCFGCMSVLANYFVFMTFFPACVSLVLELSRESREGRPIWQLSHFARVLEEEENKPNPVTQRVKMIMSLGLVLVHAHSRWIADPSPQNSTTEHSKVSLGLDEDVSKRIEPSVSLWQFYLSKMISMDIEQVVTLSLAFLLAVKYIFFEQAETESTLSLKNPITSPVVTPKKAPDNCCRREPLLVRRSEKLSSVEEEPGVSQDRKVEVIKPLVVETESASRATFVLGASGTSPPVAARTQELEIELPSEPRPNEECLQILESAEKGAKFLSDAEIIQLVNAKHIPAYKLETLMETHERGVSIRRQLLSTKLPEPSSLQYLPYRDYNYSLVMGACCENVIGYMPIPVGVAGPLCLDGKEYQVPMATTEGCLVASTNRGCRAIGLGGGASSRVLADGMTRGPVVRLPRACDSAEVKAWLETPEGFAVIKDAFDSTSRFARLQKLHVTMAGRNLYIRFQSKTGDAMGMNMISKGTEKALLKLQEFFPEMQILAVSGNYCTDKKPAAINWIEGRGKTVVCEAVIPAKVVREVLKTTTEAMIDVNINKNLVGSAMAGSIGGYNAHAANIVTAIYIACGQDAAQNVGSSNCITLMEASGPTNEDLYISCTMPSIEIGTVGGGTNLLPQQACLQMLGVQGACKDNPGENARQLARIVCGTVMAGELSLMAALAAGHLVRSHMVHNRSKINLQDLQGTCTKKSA
Nature of the experiment: Immunoblotting of HMGCR in SRD-15 (Insig-1 and Insig-2-deficient) cells. It counts as cell-based, Chinese hamster. The note with it: SRD-15 cells. Here is the method: CHO-7 (Chinese hamster ovary cell, a clone of CHO-K1 cell line selected for growth in LPDS) and Huh7 (a human hepatocellular carcinoma cell line), SRD-13A (a Scap-deficient CHO-7 cell line) and SRD-15 (an Insig-1 and Insig-2-deficient CHO-7 cell line) were generous gifts from Russell Debose-Boyd at UT Southwestern Medical Center, USA. All cells were grown in a monolayer at 37 °C with 5% CO2. Huh7 cells were maintained in medium A supplemented with 10% FBS. CHO-7 and SRD-15 cells were maintained in medium B supplemented with 5% FBS. SRD-13A cells were maintained in medium B with 5% FBS, 5 μg ml^−1 cholesterol, 1 mM sodium mevalonate, 10 μM sodium oleate. No cell lines used in this study were found in the database of commonly misidentified cell lines that is maintained by ICLAC and NCBI Biosample. […]
Cells were harvested and homogenized in the RIPA buffer (50 mM Tris-HCl, pH 8.0, 150 mM NaCl, 2 mM MgCl2, 1.5% NP-40, 0.1% SDS, and 0.5% sodium deoxycholate) supplemented with protease cocktail inhibitor, 10 μM MG-132, 10 μg ml^−1 leupeptin and 1 mM phenylmethylsulfonyl fluoride. The protein concentrations of lysates were determined using BCA method (Beyotime). […] Western blot images were captured by Amersham Imager 600 (GE Healthcare), and integrated optical intensities of each band were quantified by Image-Pro Plus 6 software (Media Cybernetics). […]

For experiment [2], the system named is Hmgcr mRNA. As to the kind of experiment: RT-qPCR of exogenous WT and mutated Hmgcr mRNA in Huh7 cells. Type of experiment: cell-based. The note with it: lovastatin. The procedure: Cells were treated as described in corresponding figure legends, then total RNA was extracted from cells or mouse livers using TRI Reagent (T9424, Sigma-Aldrich). Equal amounts of RNA from cells or mice receiving the same treatment were pooled were used for cDNA synthesis with oligo dT and reverse transcriptase MLV (Promega). Gene expression was analyzed by quantitative real-time PCR on a Stratagene Mx30005PTM Q-PCR Systems. The primers used were listed in Supplementary Tables 2–4.
a CHO-7 cells were treated with or without 1 μM lovastatin in medium B with 5%
LDPS and 50 μM mevalonate for 16 h, and harvested for total RNA isolation and
RT-qPCR. Quantifications of the relative mRNA levels of indicated SREBP target
(1 picture or pasted object on this page, not shown here)

On to `C=CCC(O)(CC=C)CCCC(C)C1CCC2C3C(O)C=C4C(C)(C)C(O)CCC4(C)C3CCC12C` (centres unmarked) [Cmpd 81], for which the “Cmpd 81-induced disappearance of endogenous HMGCR in cells lacking Insig-1 and Insig-2” value in experiment [1] is “completely abolished”.

Take `CC[C@H](C)C(=O)O[C@H]1C[C@@H](C)C=C2C=C[C@H](C)[C@H](CC[C@@H]3C[C@@H](O)CC(=O)O3)[C@H]21` [Lovastatin, lovastatin]: the “mRNA levels of both WT and mutated Hmgcr” value in experiment [2] is listed as “did not show obvious change”.
